Activity calls are given as the source filed them. The rule behind the calls is not given here.
Assays:
[1] = test system: HepG2; test: Inhibition of apoB secretion in human HepG2 cells after 40 hrs by ELISA; format: functional, cell-based; conditions: HepG2, 40 h
[2] = Inhibition of MTP from dog liver microsomes by scintillation counting; design: species or system Canis lupus familiaris, Microsome
[3] = test system: Mus musculus; test: Decrease in plasma triglyceride level in […] C57BL/6 mouse at 10 mg/kg, po daily for 3 days measured after 6 hrs; format: functional
[4] = test system: Mus musculus; test: Increase in peptide YY level in 3-day high fat diet fed C57BL/6 mouse at 10 mg/kg, po daily for 3 days; format: functional, organism-based; design: dose 10 mg/kg
[5] = test system: Mus musculus; test: Decrease in total food intake in 3-day high fat diet fed C57BL/6 mouse at 10 mg/kg, po daily for 3 days; format: functional
[6] = test system: Mus musculus; test: Decrease in body weight in […] at 10 mg/kg, po daily for 3 days; format: functional, C57BL/6

IC50 [1] [nM]	IC50 [2] [nM]	SMILES	Activity [3]	Activity [4]	Activity [5]	Activity [6]
17.3		CN(Cc1ccc(F)cc1)C(=O)[C@@H](NC(=O)c1nc2ccc(NC(=O)c3ccccc3-c3ccc(C(F)(F)F)cc3)cc2s1)c1ccccc1				
2.7	3	CN(Cc1ccc(F)cc1)C(=O)[C@@H](NC(=O)c1nc2ccc(NC(=O)c3ccccc3-c3ccc(C(C)(C)C)cc3)cc2s1)c1ccccc1	Active	Active	Active	Active

— ChEMBL document CHEMBL1153899, “Discovery of benzothiazole derivatives as efficacious and enterocyte-specific MTP inhibitors” (Bioorg Med Chem Lett, 2009)
